Source: ChEMBL document CHEMBL1154909, “Dammarane-type glycosides from Gynostemma pentaphyllum and their effects on IL-4-induced eotaxin expression in human bronchial epithelial cells” (J Nat Prod, 2010)

Experiments:
[1] = Antiinflammatory activity in human BEAS2B cells assessed as inhibition of IL4 and TNF-alpha-induced eotaxin production at 10 uM after 48 hrs by ELISA pretreated for 2 hrs before IL4 and TNFalpha challenge; assay type: functional, BEAS-2B
BEAS-2B = test: Antiinflammatory activity in human BEAS2B cells assessed as inhibition of IL4-induced eotaxin production after 48 hrs by ELISA pretreated for 2 hrs before IL4 challenge; assay type: functional, cell-based
[2] = Cytotoxicity against human BEAS2B cells at 10 uM after 48 hrs by MTT assay in the presence of IL4; assay type: cell-based; conditions: beas-2b
[3] = Antiinflammatory activity in human BEAS2B cells assessed as inhibition of IL4 and TNF-alpha-induced eotaxin production after 48 hrs by ELISA pretreated for 2 hrs before IL4 and TNFalpha challenge (Rvb= 450+/-38.4 pg/mL); assay type: functional, BEAS-2B
[4] = Cytotoxicity against human BEAS2B cells at 10 uM after 48 hrs by MTT assay; assay type: cell-based; conditions: beas-2b
[5] = Antiinflammatory activity in human BEAS2B cells assessed as inhibition of IL4-induced eotaxin production at 10 uM after 48 hrs by ELISA pretreated for 2 hrs before IL4 challenge (reference value: 58.5+/-4.7 ng/mL); assay type: functional, BEAS-2B

Row | Structure (SMILES) | Activity [1] [pg/mL] | Activity (BEAS-2B) | Activity [2] | Activity [3] [pg/mL] | Activity [4] | Activity [5] [pg/mL]
1 | CC(=O)OC[C@H]1O[C@@H](O[C@H]2[C@H](O[C@@](C)(CCC=C(C)C)[C@H]3CC[C@]4(C)[C@@H]3[C@H](O)C[C@@H]3[C@@]5(C)C[C@@H](O)[C@H](O[C@@H]6O[C@H](CO)[C@@H](O)[C@H](O)[C@H]6O)C(C)(C)[C@@H]5CC[C@]34C)O[C@H](CO)[C@@H](O)[C@@H]2O)[C@H](O)[C@@H](O)[C@@H]1O | 157.2 | Dose-dependent effect |  |  |  | 
2 | CC(C)=CCC[C@](C)(O[C@@H]1O[C@H](CO[C@@H]2OC[C@@H](O)[C@H](O)[C@H]2O)[C@@H](O)[C@H](O)[C@H]1O)[C@H]1CC[C@]2(C)[C@@H]1[C@H](O)C[C@@H]1[C@@]3(C)C[C@@H](O)[C@H](O[C@@H]4O[C@H](CO)[C@@H](O[C@@H]5O[C@H](CO)[C@@H](O)[C@H](O)[C@H]5O)[C@H](O)[C@H]4O)C(C)(C)[C@@H]3CC[C@]12C |  | Dose-dependent effect | Non-toxic | 197.2 | Non-toxic | 
3 | COc1ccc2ccc(=O)oc2c1CC=C(C)C [OSTHOLE] | 187.3 |  |  |  |  | 16.8
